Paper PMC9059125 (Journal of Medicinal Chemistry, 2022)
Like-named read-outs stand apart in the source and are kept apart here. *1 amine or outer side, *2 acyl side, *3 side chain or, on linkers, in order; H or OH if unused. Where a SMILES comes first, the peptide text is derived from it. Bridges are numbered along the chain shown (N, C = ends). X1 = O=C(CCC[*:2])[*:1]

How the values were obtained:
[1] = simulated gi fluid, pH 6.8
in vitro = details: pig, simulated gi fluid, pH 6.8
[2] = simulated gi fluid, pH 1.2
[3] = target: T1, human oxytocin receptor (OTR) (Homo sapiens, UniProt P30559); details: cited from earlier work
T1 construct: NIMH PDSP (data provider)
T1 sequence (P30559 1-389): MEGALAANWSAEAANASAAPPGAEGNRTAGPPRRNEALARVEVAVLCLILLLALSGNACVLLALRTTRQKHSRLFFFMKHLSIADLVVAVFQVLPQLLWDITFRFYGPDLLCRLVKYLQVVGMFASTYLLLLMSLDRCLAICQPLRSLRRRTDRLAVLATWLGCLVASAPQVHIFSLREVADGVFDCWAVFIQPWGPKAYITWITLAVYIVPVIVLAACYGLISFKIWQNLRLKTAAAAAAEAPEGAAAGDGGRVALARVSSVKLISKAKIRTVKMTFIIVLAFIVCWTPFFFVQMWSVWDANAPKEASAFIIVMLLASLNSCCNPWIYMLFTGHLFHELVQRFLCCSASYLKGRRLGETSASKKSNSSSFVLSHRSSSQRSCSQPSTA

[4] = target: T1, human oxytocin receptor (OTR); test: NIMH PDSP FLIPR-TETRA Ca2+-mobilization assay; format: cell-based
hOTR = target: T2, hOTR (Homo sapiens, UniProt P30559); test: cell-based
T2 construct: expressed in transfected cells; host or cells: COS-1 cells (ATCC), transient transfection with FuGENE HD
T2 sequence (P30559 1-389): T1 sequence (P30559 1-389)

[5] = simulated gi fluid; cited from earlier work

SMILES	t1/2 SIF [1] [h]	t1/2 SGF [2] [h]	t1/2 SIF ([1]; pig) [h]	also measured
CC[C@H](C)[C@@H]1NC(=O)[C@@H]2CSSC[C@H](NC(=O)[C@H](CCCNC(=N)N)NC(=O)[C@@H]3CSSC[C@H](NC1=O)C(=O)N[C@@H]([C@@H](C)O)C(=O)N[C@@H](CCCNC(=N)N)C(=O)NCC(=O)N[C@@H](Cc1ccccc1)C(=O)N3)C(=O)N[C@@H](CC(C)C)C(=O)N[C@H]1CSSC[C@H](NC(=O)[C@H](C(C)C)NC(=O)CNC(=O)[C@H](CCCNC(=N)N)NC(=O)[C@H](CCCNC(=N)N)NC1=O)C(=O)N[C@@H](CCCNC(=N)N)C(=O)N2 [RTD-1] (HELM PEPTIDE1{G.F.C.R.C.L.C.R.R.G.V.C.R.C.I.C.T.R}$PEPTIDE1,PEPTIDE1,3:R3-16:R3|PEPTIDE1,PEPTIDE1,5:R3-14:R3|PEPTIDE1,PEPTIDE1,7:R3-12:R3|PEPTIDE1,PEPTIDE1,1:R1-18:R2$$$V2.0)	0.05 ± 0.017	2.2 ± 0.3	–	half-life (in vitro): < 3 min
CC[C@H](C)[C@@H]1NC(=O)[C@H](Cc2ccc(O)cc2)NC(=O)[C@@H](N)CSSC[C@@H](C(=O)N2CCC[C@H]2C(=O)N[C@@H](CC(C)C)C(=O)N(C)CC(N)=O)NC(=O)[C@H](CC(N)=O)NC(=O)[C@H](CCC(N)=O)NC1=O [(Nα-Me)G^9OT]	–	–	2.9 ± 0.1	reduced potency compared to native OT [3]: ~10 fold
CC(C)C[C@@H]1NC(=O)[C@H](CCC(=O)O)NC(=O)[C@@H](NC(=O)[C@H](CCC(=O)O)NC(=O)[C@H](CC(=O)O)NC(=O)[C@H](N)CC(N)=O)CSSC[C@@H]2NC(=O)[C@H](C)NC(=O)[C@H](C(C)C)NC(=O)[C@H](CC(N)=O)NC(=O)[C@H](C(C)C)NC(=O)[C@H](CSSC[C@@H](C(=O)N[C@H](CC(C)C)C(=O)O)NC(=O)CNC(=O)[C@H]([C@@H](C)O)NC2=O)NC1=O [Dolcanatide, reference compound]	>24	>24	–	–
CC[C@H](C)[C@@H]1NC(=O)[C@H](Cc2ccc(O)cc2)NC(=O)[C@@H](N)CSSC[C@@H](C(=O)N2CCC[C@H]2C(=O)N[C@@](C)(CC(C)C)C(=O)NCC(N)=O)NC(=O)[C@H](CC(N)=O)NC(=O)[C@H](CCC(N)=O)NC1=O [(Cα-Me)L^8OT]	–	–	4.4 ± 0.3	EC50 [4]: 3.8 ± 2.7 nM; Emax ± SEM OTR [4]: 105 ± 11; bioactivity at OTR compared to native OT [4]: equipotent to native OT
CC[C@H](C)[C@@H]1NC(=O)[C@H](Cc2ccc(O)cc2)NC(=O)[C@@H]2CSSC[C@@H]3NC(=O)[C@H](C(C)C)NC(=O)[C@@H]4CCCN4C(=O)[C@H](Cc4c[nH]c5ccccc45)NC(=O)[C@H](CO)NC(=O)[C@@H]4CSSC[C@H](NC(=O)[C@H]([C@@H](C)O)NC(=O)[C@H](CCC(=O)O)NC(=O)CNC(=O)[C@H](CSSC[C@H](NC(=O)[C@H](CC(N)=O)NC(=O)[C@H]([C@@H](C)O)NC1=O)C(=O)N[C@@H]([C@@H](C)O)C(=O)N4)NC(=O)[C@H](C(C)C)NC(=O)[C@@H]1CCCN1C(=O)[C@H](CC(C)C)NC(=O)CNC(=O)[C@H](CC(N)=O)NC(=O)[C@H](CCCNC(=N)N)NC(=O)[C@H]([C@@H](C)O)NC3=O)C(=O)N[C@@H](C(C)C)C(=O)NCC(=O)NCC(=O)N[C@@H]([C@@H](C)O)C(=O)N2 [KB1(T^4G^7OT^[2-5])]	>24	–	–	EC50 (hOTR): > 10000 nM
NC(=O)CC[C@@H]1NC(=O)[C@H](Cc2ccccc2)NC(=O)[C@H](Cc2ccc(O)cc2)NC(=O)[C@@H](N)CSSC[C@@H](C(=O)N2CCC[C@H]2C(=O)N[C@@H](CCCN=C(N)N)C(=O)NCC(N)=O)NC(=O)[C@H](CC(N)=O)NC1=O [Vasopressin, reference compound]	<0.05	>24	–	–
NC(=O)CC[C@@H]1NC(=O)[C@H](Cc2ccccc2)NC(=O)[C@H](Cc2ccc(O)cc2)NC(=O)CCSSC[C@@H](C(=O)N2CCC[C@H]2C(=O)N[C@H](CCCN=C(N)N)C(=O)NCC(N)=O)NC(=O)[C@H](CC(N)=O)NC1=O [Desmopressin]	–	–	–	reported t1/2 in SIF [5]: 0.5 h
CC[C@H](C)[C@@H]1NC(=O)[C@H](Cc2ccc(O)cc2)NC(=O)[C@@H]2CSSC[C@@H]3NC(=O)[C@H](C(C)C)NC(=O)[C@@H]4CCCN4C(=O)[C@H](Cc4c[nH]c5ccccc45)NC(=O)[C@H](CO)NC(=O)[C@@H]4CSSC[C@H](NC(=O)[C@H]([C@@H](C)O)NC(=O)[C@H](CCC(=O)O)NC(=O)CNC(=O)[C@H](CSSC[C@H](NC(=O)[C@H](CC(N)=O)NC(=O)[C@H](CCC(N)=O)NC1=O)C(=O)N[C@@H]([C@@H](C)O)C(=O)N4)NC(=O)[C@H](C(C)C)NC(=O)[C@@H]1CCCN1C(=O)[C@H](CC(C)C)NC(=O)CNC(=O)[C@H](CC(N)=O)NC(=O)[C@H](CCCNC(=N)N)NC(=O)[C@H]([C@@H](C)O)NC3=O)C(=O)N[C@@H](C(C)C)C(=O)NCC(=O)NCC(=O)N[C@@H]([C@@H](C)O)C(=O)N2 [KB1(OT^[2-5])]	>24	–	–	EC50 (hOTR): > 10000 nM
CC[C@H](C)[C@@H]1NC(=O)[C@H](Cc2ccc(O)cc2)NC(=O)[C@@H](N)CSSC[C@@H](C(=O)N2CCC[C@H]2C(=O)N[C@H](CC(=O)NCC(N)=O)CC(C)C)NC(=O)[C@H](CC(N)=O)NC(=O)[C@H](CCC(N)=O)NC1=O [(β^3-homo)L^8OT]	–	–	3.6 ± 0.1	–
CC(C)C[C@@H]1NC(=O)CNC(=O)[C@H](CC(N)=O)NC(=O)[C@H](CCCNC(=N)N)NC(=O)[C@H]([C@@H](C)O)NC(=O)[C@@H]2CSSC[C@@H]3NC(=O)[C@H]([C@@H](C)O)NC(=O)CNC(=O)CNC(=O)[C@H](C(C)C)NC(=O)[C@@H]4CSSC[C@H](NC(=O)[C@H]([C@@H](C)O)NC(=O)[C@H](CSSC[C@H](NC(=O)[C@H](C(C)C)NC(=O)[C@@H]5CCCN5C1=O)C(=O)NCC(=O)N[C@@H](CCC(=O)O)C(=O)N[C@@H]([C@@H](C)O)C(=O)N4)NC(=O)CNC(=O)[C@@H]1CCCN1C(=O)[C@H]([C@@H](C)O)NC(=O)[C@H](CC(N)=O)NC3=O)C(=O)N[C@@H](CO)C(=O)N[C@@H](Cc1c[nH]c3ccccc13)C(=O)N1CCC[C@H]1C(=O)N[C@@H](C(C)C)C(=O)N2 [Kalata B1, reference compound]	>24	>24	–	–
CC[C@H](C)[C@@H]1NC(=O)[C@H](Cc2ccc(O)cc2)NC(=O)[C@@H]2CSSC[C@@H]3NC(=O)[C@H]([C@@H](C)CC)NC(=O)[C@@H]4CCCN4C(=O)[C@H](Cc4c[nH]c5ccccc45)NC(=O)[C@H](CO)NC(=O)[C@@H]4CSSC[C@H](NC(=O)[C@H]([C@@H](C)O)NC(=O)[C@H](CCC(=O)O)NC(=O)CNC(=O)[C@H](CSSC[C@H](NC(=O)[C@H](CC(N)=O)NC(=O)[C@H]([C@@H](C)O)NC1=O)C(=O)N[C@@H]([C@@H](C)O)C(=O)N4)NC(=O)[C@H](C(C)C)NC(=O)[C@@H]1CCCN1C(=O)[C@H](CC(C)C)NC(=O)CNC(=O)[C@H](CC(N)=O)NC(=O)[C@H](CCCNC(=N)N)NC(=O)[C@H](CCCCN)NC3=O)C(=O)N[C@@H]([C@@H](C)O)C(=O)N[C@@H](CC(C)C)C(=O)NCC(=O)N[C@@H]([C@@H](C)O)C(=O)N2 [KB7(T^4G^7OT^[2-5])]	>24	–	–	EC50 (hOTR): > 10000 nM
CC[C@H](C)[C@@H]1NC(=O)[C@H](Cc2ccc(OC)cc2)NC(=O)CCCSC[C@@H](C(=O)N2CCC[C@H]2C(=O)N[C@@H](CC(C)C)C(=O)NCC(N)=O)NC(=O)[C@H](CC(N)=O)NC(=O)[C@H](CCC(N)=O)NC1=O [Carbetocin, reference compound] (Y(Me)IQNCPLG-NH2; linker N-5 via X1)	–	>24	0.217 ± 0.017	–
CC[C@H](C)[C@@H]1NC(=O)[C@H](Cc2ccc(O)cc2)NC(=O)[C@@H](N)CSSC[C@@H](C(=O)N2CCC[C@H]2C(=O)N[C@@H](CC(C)C)C(=O)NNC(N)=O)NC(=O)[C@H](CC(N)=O)NC(=O)[C@H](CCC(N)=O)NC1=O [G^9(aza)OT]	<0.05	–	–	EC50 [4]: 2.24 ± 0.63 nM; Emax ± SEM OTR [4]: 111 ± 6
CC[C@H](C)[C@@H]1NC(=O)[C@H](Cc2ccc(O)cc2)NC(=O)[C@@H](N)CSSC[C@@H](C(=O)N2CCC[C@H]2C(=O)N[C@@H](CC(C)C)C(=O)NCC(N)=O)NC(=O)[C@H](CC(N)=O)NC(=O)[C@H](CCC(N)=O)NC1=O [Oxytocin, reference compound]	–	>24	0.13 ± 0.017	–
C[C@@H]1NC(=O)[C@@H]2CCCN2C(=O)[C@H](CC(N)=O)NC(=O)[C@@H]2CSSC[C@H](N)C(=O)N[C@H]3CSSC[C@H](NC1=O)C(=O)N[C@@H]([C@@H](C)O)C(=O)NCC(=O)N[C@H](C(=O)N[C@@H](Cc1ccc(O)cc1)C(=O)O)CSSC[C@H](NC(=O)[C@H](Cc1ccc(O)cc1)NC(=O)[C@H](CCC(=O)O)NC3=O)C(=O)N2 [Linaclotide] (HELM PEPTIDE1{C.C.E.Y.C.C.N.P.A.C.T.G.C.Y}$PEPTIDE1,PEPTIDE1,1:R3-6:R3|PEPTIDE1,PEPTIDE1,2:R3-10:R3|PEPTIDE1,PEPTIDE1,5:R3-13:R3$$$V2.0)	–	>24	0.9 ± 0.05	reported t1/2 in SIF [5]: 0.267 h
CC(C)C[C@H](NC(=O)[C@@H]1CSSC[C@@H]2NC(=O)[C@H](CC(C)C)NC(=O)[C@H](CCC(=O)O)NC(=O)[C@@H](NC(=O)[C@H](CCC(=O)O)NC(=O)[C@H](CC(=O)O)NC(=O)[C@@H](N)CC(N)=O)CSSC[C@H](NC(=O)[C@H](C)NC(=O)[C@H](C(C)C)NC(=O)[C@H](CC(N)=O)NC(=O)[C@H](C(C)C)NC2=O)C(=O)N[C@@H]([C@@H](C)O)C(=O)NCC(=O)N1)C(=O)O [Plecanatide, reference compound]	–	>24	0.083 ± 0.017	–
